Assay results as given in US20130210039A1, “BLOOD INSULIN RESISTANCE AND DIABETES MARKER PROGRANULIN, METHOD FOR ANALYZING CONCENTRATION OF PROGRANULIN IN BLOOD SAMPLE, AND METHOD FOR SCREENING FOR SUBSTANCE THAT IMPROVES INSULIN RESISTANCE AND IMPROVES OR SUPPRESSES DIABETES” (priority 2010, published 2013).

Key:
progranulin (PGRN) mRNA = assay: Progranulin mRNA expression in adipose tissues of ob/ob mice orally administered pioglitazone; type: in vivo; conditions: ten-week-old ob/ob mice, 30 mg/kg orally every day for 1 week, mean±S.D.
Procedure: Adipose tissues (mesenteric fat tissue (MF), epididymal fat tissue (EF), and subcutaneous adipose tissue (SC)) were extracted from seven-week-old ob/ob mice and ob/+ mice and subjected to real-time PCR analysis to determine the expression levels of mRNA for progranulin (PGRN).
(§1) Ten-week-old ob/ob mice were orally administered with 30 mg/kg of a thiazolidine derivative (pioglitazone) every day for 1 week. An oral glucose tolerance test (OGTT) was performed on these mice and a control group (Vehicle) administered with only a solvent (10% (w/v) carboxymethyl cellulose).
In FIG. 8, the horizontal axis represents the type of adipose tissue (epididymal fat tissue (EF), mesenteric fat tissue (MF), subcutaneous adipose tissue (SC) (white adipose tissue (WAT) and brown adipose tissue (BAT)), the vertical axis represents the relative expression level of progranulin mRNA (relative PRGN mRNA expression), “Vehicle” represents the control group, and “Pio” represents the pioglitazone administration group.

progranulin (PGRN) = assay: Serum progranulin concentration in ob/ob mice orally administered pioglitazone (ELISA); type: in vivo; conditions: ten-week-old ob/ob mice, 30 mg/kg orally every day for 1 week; mean±S.D., n=5; p<0.05 vs Vehicle (2.57±0.28)
Procedure: Blood samples were collected from seven-week-old ob/ob mice and ob/+ mice, allowed to stand at room temperature, and centrifuged to prepare serum samples. Serum progranulin concentrations were measured by ELISA.
as §1
In FIG. 9, the horizontal axis represents the type of group to be measured (pioglitazone administration group (Pio), control group (Vehicle), and ob/+ mice) and the vertical axis represents the serum progranulin concentration (Serum PGRN conc.) (μg/mL).

cultured adipocytes = cultured adipocytes treated with the substance alone; cited from earlier work
Akt protein = conditions: cultured adipose cells treated with progranulin protein, under insulin stimulation; cited from earlier work

Molecule: CCc1ccc(CCOc2ccc(CC3SC(=O)NC3=O)cc2)nc1 (stereo not drawn) [pioglitazone]
- expression level of mRNA for progranulin in mesenteric fat tissue (MF) (progranulin (PGRN) mRNA; p<0.01 vs Vehicle): 0.42±0.11 times that of the control group
- expression level of mRNA for progranulin in epididymal fat tissue (EF) (progranulin (PGRN) mRNA; p<0.05 vs Vehicle): 0.74±0.06 times that of the control group
- expression level of mRNA for progranulin in subcutaneous adipose tissue (SC) (white adipose tissue (WAT)) (progranulin (PGRN) mRNA; p<0.05 vs Vehicle): 0.61±0.07 times that of the control group
- serum progranulin concentration (progranulin (PGRN)): 1.86 ± 0.10 µg/mL

Molecule: TNF-α
- expression level of progranulin (cultured adipocytes): increased

B1: progranulin protein: granulin precursor protein having seven kinds of granulin domains; insulin resistance marker (protein)
chain: MWTLVSWVALTAGLVAGTRCPDGQFCPVACCLDPGGASYSCCRPLLDKWPTTLSRHLGGPCQVDAHCSAGHSCIFTVSGTSSCCPFPEAVACGDGHHCCPRGFHCSADGRSCFQRSGNNSVGAIQCPDSQFECPDFSTCCVMVDGSWGCCPMPQASCCEDRVHCCPHGAFCDLVHTRCITPTGTHPLAKKLPAQRTNRAVALSSSVMCPDARSRCPDGSTCCELPSGKYGCCPMPNATCCSDHLHCCPQDTVCDLIQSKCLSKENATTDLLTKLPAHTVGDVKCDMEVSCPDGYTCCRLQSGAWGCCPFTQAVCCEDHIHCCPAGFTCDTQKGTCEQGPHQVPWMEKAPAHLSLPDPQALKRDVPCDNVSSCPSSDTCCQLTSGEWGCCPIPEAVCCSDHQHCCPQGYTCVAEGQCQRGSEIVAGLEKMPARRASLSHPRDIGCDQHTSCPVGQTCCPSLGGSWACCQLPHAVCCEDRQHCCPAGYTCNVKARSCEKEVVSAQPATFLARSPHVGVKDVECGEGHFCHDNQTCCRDNRQGWACCPYRQGVCCADRRHCCPAGFRCAARGTKCLRREAPRWDAPLRDPALRQLL
modifications: human
notes: granulin precursor protein having seven kinds of granulin domains; insulin resistance marker
- activity of Akt protein activated downstream of an insulin receptor (Akt protein): significantly suppressed
